From patent publication US7514452B2, “2-furancarboxylic acid hydrazides and pharmaceutical compositions containing the same” (Dainippon Pharmaceutical Co., Ltd, priority 2002, dated 2009)

Columns and labels:
[1] = molecular target: glucagon receptor (Mus musculus, UniProt Q61606); assay: Experiment for glucagon binding inhibition, mouse hepatic membrane (125I-glucagon); settings: male ddY mouse hepatic membrane, 125I-glucagon 50 pM, 25° C. for 30 minutes; read-out: Glucagon binding inhibitory activity IC50 (nM) Mouse
glucagon receptor (Mus musculus, UniProt Q61606), sequence (Q61606 27-485): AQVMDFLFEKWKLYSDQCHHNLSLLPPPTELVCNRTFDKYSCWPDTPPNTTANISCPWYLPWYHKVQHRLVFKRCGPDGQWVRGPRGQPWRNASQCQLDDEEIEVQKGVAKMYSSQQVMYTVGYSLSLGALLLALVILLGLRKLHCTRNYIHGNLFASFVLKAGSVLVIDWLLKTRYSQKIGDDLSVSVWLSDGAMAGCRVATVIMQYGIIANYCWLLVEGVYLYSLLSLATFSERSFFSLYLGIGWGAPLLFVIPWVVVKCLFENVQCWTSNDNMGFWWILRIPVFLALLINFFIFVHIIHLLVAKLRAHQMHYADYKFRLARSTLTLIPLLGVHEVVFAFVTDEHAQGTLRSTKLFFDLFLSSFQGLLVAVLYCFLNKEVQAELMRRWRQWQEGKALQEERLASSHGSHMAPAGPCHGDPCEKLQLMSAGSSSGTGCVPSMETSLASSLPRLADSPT
Procedure, shortened: (§1)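 Liver membranes from male SD rats or male ddY mice were incubated with 125I-glucagon and compound for 30 min at 25 °C. Bound radioactivity was collected on filters washed with pH 7.2 Tris-HCl and counted by γ counter, in duplicate. IC50 was taken from a pseudo Hill plot.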

[2] = molecular target: glucagon receptor (Rattus norvegicus, UniProt P30082); assay: Experiment for glucagon binding inhibition, rat hepatic membrane (125I-glucagon); settings: male SD rat hepatic membrane, 125I-glucagon 50 pM, 25° C. for 30 minutes; read-out: Glucagon binding inhibitory activity IC50 (nM) Rat
glucagon receptor (Rattus norvegicus, UniProt P30082), sequence (P30082 27-485): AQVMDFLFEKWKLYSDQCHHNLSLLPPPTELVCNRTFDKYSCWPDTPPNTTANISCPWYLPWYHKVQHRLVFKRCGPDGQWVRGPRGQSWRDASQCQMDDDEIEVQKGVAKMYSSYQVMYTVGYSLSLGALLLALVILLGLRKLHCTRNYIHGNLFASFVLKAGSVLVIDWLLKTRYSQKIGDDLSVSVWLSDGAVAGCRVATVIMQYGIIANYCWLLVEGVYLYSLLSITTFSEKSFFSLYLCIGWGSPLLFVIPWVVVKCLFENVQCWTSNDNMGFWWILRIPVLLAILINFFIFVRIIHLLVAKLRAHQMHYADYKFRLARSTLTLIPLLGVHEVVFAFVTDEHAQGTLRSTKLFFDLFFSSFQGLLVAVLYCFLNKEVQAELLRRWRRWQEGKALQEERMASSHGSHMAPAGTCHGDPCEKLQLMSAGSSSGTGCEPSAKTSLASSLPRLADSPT
Procedure, shortened: as §1

| Structure (SMILES) | IC50 [1] | melting point | IC50 [2] |
| --- | --- | --- | --- |
| CCCCCc1ccc(-c2ccoc2C(=O)NNC(=O)c2ccc(O)c([N+](=O)[O-])c2)cc1 [Example 162, 3-(4-Pentylphenyl)-2-furancarboxylic acid 2-(4-hydroxy-3-nitrobenzoyl)hydrazide] | 8.6 nM | 163 to 165 °C | 9.6 nM |
| COc1ccc(COc2cccc(-c3ccoc3C(=O)NNC(=O)c3ccc(O)c([N+](=O)[O-])c3)c2)cn1 [Example 164, 3-[3-(2-Methoxy-5-pyridylmethyloxy)phenyl]-2-furancarboxylic acid 2-(4-hydroxy-3-nitrobenzoyl)hydrazide] | 6.5 nM | 180 to 181 °C | 3.9 nM |
| COc1ccc(COc2cccc(-c3ccoc3C(=O)NNC(=O)c3ccc(O)c([N+](=O)[O-])c3)c2)cc1 [Example 176, 3-[3-(4-Methoxybenzyloxy)phenyl]-2-furancarboxylic acid 2-(4-hydroxy-3-nitrobenzoyl)hydrazide] | 5.2 nM | 172 to 174 °C | 6.4 nM |
| CC(C)CCOc1cccc(-c2ccoc2C(=O)NNC(=O)c2ccc(O)c([N+](=O)[O-])c2)c1 [Example 180, 3-(3-Isopentyloxyphenyl)-2-furancarboxylic acid 2-(4-hydroxy-3-nitrobenzoyl)hydrazide] | 46 nM | 122 to 124 °C | 84 nM |
| CCCCOc1cccc(-c2ccoc2C(=O)NNC(=O)c2ccc(O)c([N+](=O)[O-])c2)c1 [Example 181, 3-(3-Butoxyphenyl)-2-furancarboxylic acid 2-(4-hydroxy-3-nitrobenzoyl)hydrazide] | 62 nM | 135 to 138 °C | 30 nM |
| CCCCCOc1cccc(-c2ccoc2C(=O)NNC(=O)c2ccc(O)c([N+](=O)[O-])c2)c1 [Example 182, 3-(3-Pentyloxyphenyl)-2-furancarboxylic acid 2-(4-hydroxy-3-nitrobenzoyl)hydrazide] | 50 nM | 96 to 99 °C | 49 nM |
| CC(C)COc1cccc(-c2ccoc2C(=O)NNC(=O)c2ccc(O)c([N+](=O)[O-])c2)c1 [Example 183, 3-(3-Isobutoxyphenyl)-2-furancarboxylic acid 2-(4-hydroxy-3-nitrobenzoyl)hydrazide] | 34 nM | 98 to 100 °C | 51 nM |
| CCCCCCOc1cccc(-c2ccoc2C(=O)NNC(=O)c2ccc(O)c([N+](=O)[O-])c2)c1 [Example 184, 3-(3-Hexyloxyphenyl)-2-furancarboxylic acid 2-(4-hydroxy-3-nitrobenzoyl)hydrazide] | 59 nM | 124 to 126 °C | 18 nM |
| CCCCCCCOc1cccc(-c2ccoc2C(=O)NNC(=O)c2ccc(O)c([N+](=O)[O-])c2)c1 [Example 185, 3-(3-Heptyloxyphenyl)-2-furancarboxylic acid 2-(4-hydroxy-3-nitrobenzoyl)hydrazide] | 23 nM | 141 to 144 °C | 20 nM |
| CCCCCCc1cccc(-c2ccoc2C(=O)NNC(=O)c2ccc(O)c([N+](=O)[O-])c2)c1 [Example 188, 3-(3-Hexylphenyl)-2-furancarboxylic acid 2-(4-hydroxy-3-nitrobenzoyl)hydrazide] | 28 nM | 87 to 89 °C | 26 nM |
| O=C(NNC(=O)c1occc1-c1cccc(Cc2ccccc2)c1)c1ccc(O)c([N+](=O)[O-])c1 [Example 189, 3-(3-Benzylphenyl)-2-furancarboxylic acid 2-(4-hydroxy-3-nitrobenzoyl)hydrazide] | 3 nM | 160 to 162 °C | 5.5 nM |
| O=C(NNC(=O)c1occc1-c1ccccc1)c1ccc(O)c(C(F)(F)F)c1 [Example 193, 3-phenyl-2-furancarboxylic acid 2-(4-hydroxy-3-trifluoromethylbenzoyl)hydrazide] | 350 nM | 117 to 121 °C | 330 nM |
| CC(C)=CCOc1cccc(-c2ccoc2C(=O)NNC(=O)c2ccc(O)c([N+](=O)[O-])c2)c1 [Example 196, 3-[3-(3-Methyl-2-butenyloxy)phenyl]-2-furancarboxylic acid 2-(4-hydroxy-3-nitrobenzoyl)hydrazide] | 63 nM | 84 to 85 °C | 40 nM |
| C=C(C)COc1cccc(-c2ccoc2C(=O)NNC(=O)c2ccc(O)c([N+](=O)[O-])c2)c1 [Example 197, 3-[3-(2-Methyl-2-propenyloxy)phenyl]-2-furancarboxylic acid 2-(4-hydroxy-3-nitrobenzoyl)hydrazide] | 56 nM | 127 to 129 °C | 37 nM |
| CC=CCOc1cccc(-c2ccoc2C(=O)NNC(=O)c2ccc(O)c([N+](=O)[O-])c2)c1 [Example 198, 3-[3-(2-Butenyloxy)phenyl]-2-furancarboxylic acid 2-(4-hydroxy-3-nitrobenzoyl)hydrazide] | 20 nM | 113 to 115 °C | 75 nM |
| C=CCOc1cccc(-c2ccoc2C(=O)NNC(=O)c2ccc(O)c([N+](=O)[O-])c2)c1 [Example 199, 3-[3-(2-Allyloxy)phenyl]-2-furancarboxylic acid 2-(4-hydroxy-3-nitrobenzoyl)hydrazide] | 75 nM | 126 to 131 °C | 99 nM |
| O=C(NNC(=O)c1occc1-c1cccc(OCc2cccc3ccccc23)c1)c1ccc(O)c([N+](=O)[O-])c1 [Example 203] | 7.7 nM | 152 to 153 °C | 7.9 nM |
| O=C(NNC(=O)c1occc1-c1cccc(OCc2ccc3ccccc3c2)c1)c1ccc(O)c([N+](=O)[O-])c1 [Example 204] | 5.4 nM | 198 to 199 °C | 3.6 nM |

| Structure (SMILES) | IC50 [1] | melting point | IC50 [2] |
| --- | --- | --- | --- |
| O=C(NNC(=O)c1occc1-c1ccc2[nH]ccc2c1)c1ccc(O)c([N+](=O)[O-])c1 [Example 207] | 9.5 nM | 129 to 131 °C | 8 nM |
| Cn1ccc2cc(-c3ccoc3C(=O)NNC(=O)c3ccc(O)c([N+](=O)[O-])c3)ccc21 [Example 208] | 270 nM | 185 to 187 °C | 290 nM |
| O=C(NNC(=O)c1occc1-c1cccc(OCCc2ccccc2)c1)c1ccc(O)c([N+](=O)[O-])c1 [Example 209, 3-(3-phenethyloxyphenyl)-2-furancarboxylic acid 2-(4-hydroxy-3-nitrobenzoyl)hydrazide] | 35 nM | 90 to 94 °C | 20 nM |
| O=C(NNC(=O)c1occc1-c1ccc(Cc2ccccc2)cc1)c1ccc(O)c([N+](=O)[O-])c1 [Example 210, 3-(4-benzylphenyl)-2-furancarboxylic acid 2-(4-hydroxy-3-nitrobenzoyl)hydrazide] | 7.9 nM | 154 to 157 °C | 3.9 nM |
| Cc1ccc(COc2ccc(-c3ccoc3C(=O)NNC(=O)c3ccc(O)c([N+](=O)[O-])c3)cc2)cc1 [Example 211] | 25 nM | 184 to 185 °C | 8.5 nM |
| Cc1ccccc1COc1ccc(-c2ccoc2C(=O)NNC(=O)c2ccc(O)c([N+](=O)[O-])c2)cc1 [Example 213] | 80 nM | 177 to 179 °C | 35 nM |
| Cc1cccc(COc2ccc(-c3ccoc3C(=O)NNC(=O)c3ccc(O)c([N+](=O)[O-])c3)cc2)c1 [Example 214] | 39 nM | 162 to 164 °C | 49 nM |
| O=C(NNC(=O)c1occc1-c1ccc2ccccc2c1)c1ccc(O)c([N+](=O)[O-])c1 [Example 217] | 37 nM | 135 to 139 °C | 60 nM |
| O=C(NNC(=O)c1occc1-c1cccc(-c2ccccc2)c1)c1ccc(O)c([N+](=O)[O-])c1 [Example 218] | 56 nM | 143 to 147 °C | 95 nM |
| O=C(NNC(=O)c1oc(Br)cc1-c1ccccc1)c1ccc(O)c([N+](=O)[O-])c1 [Example 222, 5-bromo-3-phenyl-2-furancarboxylic acid 2-(4-hydroxy-3-nitrobenzoyl)hydrazide] | 42 nM | 174 to 176 °C | 25 nM |
| Cc1cc(C)cc(COc2cccc(-c3ccoc3C(=O)NNC(=O)c3ccc(O)c([N+](=O)[O-])c3)c2)c1 [Example 223] | 26 nM | 178 to 180 °C | 12 nM |
| Cc1cccc(C)c1COc1cccc(-c2ccoc2C(=O)NNC(=O)c2ccc(O)c([N+](=O)[O-])c2)c1 [Example 224] | 48 nM | 100 to 101 °C | 27 nM |
| O=C(NNC(=O)c1occc1-c1cccc(Cc2ccccc2Cl)c1)c1ccc(O)c([N+](=O)[O-])c1 [Example 225] | 68 nM | 97 to 99 °C | 11 nM |
| CCOc1ccccc1Cc1cccc(-c2ccoc2C(=O)NNC(=O)c2ccc(O)c([N+](=O)[O-])c2)c1 [Example 226] | 31 nM | 87 to 89 °C | 21 nM |
| Cc1ccccc1Cc1cccc(-c2ccoc2C(=O)NNC(=O)c2ccc(O)c([N+](=O)[O-])c2)c1 [Example 229] | 58 nM | 135 to 138 °C | 28 nM |
| CC(c1ccccc1)c1cccc(-c2ccoc2C(=O)NNC(=O)c2ccc(O)c([N+](=O)[O-])c2)c1 (stereo not drawn) [Example 230] | 120 nM | 147 to 149 °C | 33 nM |
| O=C(NNC(=O)c1occc1-c1cccc(CCc2ccccc2)c1)c1ccc(O)c([N+](=O)[O-])c1 [Example 232] | 34 nM | 149 to 152 °C | 38 nM |
